# Reference: US20110190129A1, “IMPROVEMENTS IN OR RELATING TO ORGANIC COMPOUNDS” (SYNGENTA LIMITED, priority 2007, published 2011)
# Where two headings read alike, the source gives them in different places. Marks after values point to notes of the source that are not given here.
# Test: Solubility of pesticide samples in solvents (equilibration, 25 C, HPLC analysis)
# Assay type: physicochemical
# Protocol: The following general method is used to measure the solubility of pesticide samples in solvents. A 2 ml aliquot of solvent is added to a 5 ml volume glass vial. Pesticide is added such that half of the volume of the liquid is filled. The sample is shaken for one minute and left to stand for 24 hours. Samples which have dissolved are refilled with more of the pesticide, shaken and left for a further 24 hours. This process is continued until the samples have equilibrated for three days without the need for further pesticide addition. The samples are then placed in a temperature controlled oven at 25 C for one week prior to analysis by high pressure liquid chromatography. All samples are filtered and centrifuged prior to chromatographic analysis.
# [1] = comparison in words, dimethyl lactamide versus the other two solvents
# [2] = solvent Solvesso 200ND, 25 C, Table 1
# [3] = solvent acetophenone, 25 C, Table 1
# [4] = solvent dimethyl lactamide, 25 C, Table 1
SMILES,Solubility in Solvesso 200ND (1 week) [% w/w],Solubility in dimethyl lactamide (1 week) [% w/w],Solubility in dimethyl lactamide compared with Solvesso 200ND or acetophenone [1],Solubility in Solvesso 200ND [2],Solubility in acetophenone [3] [% w/w],Solubility in dimethyl lactamide [4] [% w/w],Solubility in dimethyl lactamide compared with Solvesso 200ND or acetophenone,other results
"Fc1ccc([C@]2(Cn3cncn3)O[C@H]2c2ccccc2Cl)cc1 (racemic) [Epoxiconazole, epoxiconazole]",2.5,8.0,,,,,,
CCNc1nc(NC(C)C)nc(SC)n1 [Ametryn],29.3,53.0,,,,,,Solubility in acetophenone (1 week): 47.4 % w/w
"N#Cc1c(Cl)c(Cl)c(Cl)c(C#N)c1Cl [Chlorothalonil, chlorothalonil]",,,lower,,,,,
"CC(C)C1C2CCC1c1c(NC(=O)c3cn(C)nc3C(F)F)cccc12 (stereo not drawn) [Compound of FIG. 2, 3-difluoromethyl-1-methyl-1H-pyrazole-4-carboxylic acid(9-isopropyl-1,2,3,4-tetrahydro-1,4-methano-naphthalen-5-yl)-amide]",,,better,5.6 % w/w,14.1,32.1,,
CN(C)C(=O)Nc1ccc(Cl)c(Cl)c1 [Diuron],,,,<0.2* % w/w,4.8,11.0,,
N#Cc1c[nH]cc1-c1cccc2c1OC(F)(F)O2 [Fludioxynil],,,better,0.3 % w/w,8.5,30.1,,
"CCCCC(O)(Cn1cncn1)c1ccc(Cl)cc1Cl (stereo not drawn) [Hexaconazole, hexaconazole]",4.4,18,,,,,better,Solubility in acetophenone (1 week): 11.7 % w/w
"CCN(CC)C(=O)C(C)Oc1cccc2ccccc12 (stereo not drawn) [Napropamide, napropamide]",,,,,,,lower,Solubility in Solvesso 200ND: 20.7; Solubility in acetophenone: 27.6 % w/w; Solubility in dimethyl lactamide: 19.2 % w/w
"CSc1nc(NC(C)C)nc(NC(C)C)n1 [Prometryn, prometryn]",12,43,,,,,better,Solubility in acetophenone (1 week): 19 % w/w
CNC(=O)c1cc(Cl)cc(C)c1NC(=O)c1cc(Br)nn1-c1ncccc1Cl [Rynaxypry],,,,0.06 % w/w,0.75,2.8,,
"CN1COCN(Cc2cnc(Cl)s2)/C1=N\[N+](=O)[O-] [Thiamethoxam, thiamethoxam]",,,better,0.2 % w/w,5.0,9.0,,
"CCO/N=C(\CC)C1=C(O)CC(c2c(C)cc(C)cc2C)CC1=O (stereo not drawn) [Tralkoxydim, tralkoxydim]",,,,,,,lower,Solubility in acetophenone: 12.7 % w/w; Solubility in dimethyl lactamide: 3.2 % w/w
